PubChem BioAssay (NCI)
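Where inhibition never reached the appropriate level, the endpoint shown equals the highest concentration tested. Otherwise, values were interpolated linearly from a five-concentration, 48-hour dose response in 96-well plates. TGI is the concentration that stops growth completely.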

Columns and labels:
Assay in all cases: NCI-60 cell line screen, 48 h
K-562 leukemia = test system: K-562 leukemia
MOLT-4 leukemia = test system: MOLT-4 leukemia
M19-MEL melanoma = test system: M19-MEL melanoma
KM20L2 colon = test system: KM20L2 colon
RXF-631 renal = test system: RXF-631 renal
DMS 114 small cell lung = test system: DMS 114 small cell lung
SNB-78 CNS = test system: SNB-78 CNS
DLD-1 colon = test system: DLD-1 colon
LXFL 529 NSCLC = test system: LXFL 529 NSCLC
XF 498 CNS = test system: XF 498 CNS
DMS 273 small cell lung = test system: DMS 273 small cell lung
HOP-18 NSCLC = test system: HOP-18 NSCLC

| Compound | TGI (K-562 leukemia) | TGI (MOLT-4 leukemia) | further results |
| --- | --- | --- | --- |
| NS(=O)(=O)c1ccc(NC(=S)/N=C/c2c(O)c3ccccc3[nH]c2=O)cc1 | > 100 µM | > 100 µM | – |
| Cc1ccc(/C(O)=C/c2nc3ccccc3nc2NC23CC4CC(CC(C4)C2)C3)cc1 | > 10 µM | > 10 µM | – |
| COc1ccc(/C=C/C(=O)c2cccc(C(=O)/C=C/c3ccc(OC)c(OC)c3)n2)cc1OC | > 100 µM | – | – |
| CN(C(=O)C12C3C4C1C1C2C3C41C(=O)O)C(C)(C)C (configuration not stated) | > 100 µM | > 100 µM | – |
| COc1cc(/C=C2\N=C(c3ccccc3)N(c3ccc(S(=O)(=O)Nc4nccs4)cc3)C2=O)ccc1O | > 100 µM | > 100 µM | – |
| O=c1cnn(C/C=C/CP(=O)(O)O)c(=O)[nH]1 | > 100 µM | – | – |
| COc1ccc(-c2c(C#N)c(N)n(C3OCC(O)C(O)C3O)c(=S)c2C#N)cc1 (configuration not stated) | > 100 µM | > 100 µM | – |
| Nc1ccc2c(c1)N(C(=O)CCCC(=O)N1CC(CCl)c3ccc(N)cc31)CC2CCl (configuration not stated) | > 15.8 µM | > 50 µM | – |
| CN(OC(=O)CC(=O)c1ccccc1)C(=O)Cc1ccccc1 | – | – | TGI (M19-MEL melanoma): > 100 µM; TGI (KM20L2 colon): > 100 µM; TGI (RXF-631 renal): > 100 µM; TGI (DMS 114 small cell lung): > 100 µM; TGI (SNB-78 CNS): > 100 µM; TGI (DLD-1 colon): > 100 µM; TGI (LXFL 529 NSCLC): > 100 µM |
| C=C[C@@]1(C)CC(=O)[C@]2(O)[C@@]3(C)[C@@H](OC(C)=O)CCC(C)(C)[C@@H]3[C@H](O)[C@H](OC(C)=O)[C@@]2(C)O1 | > 100 µM | > 100 µM | – |
| CCCC[P+](CCCC)(CCCC)C(C(=O)OC)C(C(=O)OC)=C1SC(C(=O)OC)=C(C(=O)OC)S1 (configuration not stated) | – | > 100 µM | – |
| N#Cc1cccc(Nc2ccccc2SSc2ccccc2Nc2cccc(C#N)c2)c1 | > 21.5 µM | 21.4 µM | – |
| CC(C)OP(=O)(OC(C)C)c1nn(-c2ccc([N+](=O)[O-])cc2)c(=N)s1 | > 100 µM | > 100 µM | TGI (M19-MEL melanoma): > 100 µM; TGI (KM20L2 colon): > 100 µM; TGI (DMS 114 small cell lung): > 100 µM; TGI (DLD-1 colon): > 100 µM; TGI (XF 498 CNS): > 100 µM |
| COC(=O)CC[N+]1([O-])CC1 | – | > 100 µM | – |
| Cc1cccc(/C=N/NC(=S)NC2CCCCC2)n1 | > 54.7 µM | 13.9 µM | – |
| CN(C)c1ccc(/C=C(\NC(=O)c2ccccc2)c2nc3ccccc3c(=O)o2)cc1 | > 100 µM | > 100 µM | – |
| COc1ccc(OC)c2sc(N3C(=O)/C(=C/c4ccc(N(C)C)cc4)N=C3c3ccccc3)nc12 | > 100 µM | 65.7 µM | – |
| Cc1c2[nH]c3ccc(Br)cc3c2c(C)c2[nH]ccc(=O)c12 | 55.7 µM | 28 µM | TGI (M19-MEL melanoma): 29.6 µM; TGI (DMS 114 small cell lung): 35.2 µM; TGI (SNB-78 CNS): 35.7 µM; TGI (DMS 273 small cell lung): 27 µM; TGI (HOP-18 NSCLC): 22.9 µM; TGI (DLD-1 colon): > 100 µM; TGI (XF 498 CNS): 29.7 µM |
| CC(C)(C)c1cc(C(C)(C)C)c(P=C(Cl)Cl)c(C(C)(C)C)c1 (configuration not stated) | > 100 µM | > 100 µM | – |
| CCOC(=O)C(C)c1nc2cc(F)c(N3CCOCC3)cc2[nH]c1=O (configuration not stated) | > 100 µM | > 100 µM | – |

| Compound | TGI (K-562 leukemia) | TGI (MOLT-4 leukemia) | further results |
| --- | --- | --- | --- |
| CCOC(=O)CCN1C(=O)c2ccc(NC(=O)C(=O)O)cc2S1(=O)=O | > 100 µM | > 100 µM | – |
| CCC(C)C1=C(O)[N+]2([O-])Oc3ccc(-c4c(O)c(O)c(-c5ccc(O)cc5)c(OC(C)=O)c4OC(C)=O)cc3OC2(C(C)CC)C(=O)N1O (configuration not stated) | > 50 µM | > 50 µM | – |
| O=[N+]([O-])/C(C(Cl)=C(Cl)Cl)=C(\Nc1cccc2cccnc12)Sc1ccccc1 | 84.5 µM | 37.4 µM | – |
| N#CCN(Cc1ccccc1)[C@H]1CCC[C@]1(O)/C=C/c1ccc2c(c1)OCO2 | 51.5 µM | 48.1 µM | – |
| CC[N+](C)(C)c1ccc(C(=C2C=CC(=[N+](C)C)C=C2)c2ccc(N(C)C)cc2)cc1 | 15.2 µM | 46.1 µM | TGI (M19-MEL melanoma): 25 µM; TGI (RXF-631 renal): 38.4 µM; TGI (DMS 114 small cell lung): 26.7 µM; TGI (DMS 273 small cell lung): 25.6 µM; TGI (HOP-18 NSCLC): > 100 µM; TGI (DLD-1 colon): 62.4 µM; TGI (LXFL 529 NSCLC): 34.1 µM; TGI (XF 498 CNS): 33.2 µM |
| O=C(c1c(F)c(F)c(F)c(F)c1F)n1c(=O)[nH]c2ccccc21 | 14.9 µM | 18.7 µM | – |
| O=c1[nH]nc(Cc2ccccc2)n1N=C1CCCCC1 | > 100 µM | > 100 µM | – |
| Clc1ccccc1-c1nn2c(CCCCCCCCc3nnc4sc(-c5ccccc5Cl)nn34)nnc2s1 | > 100 µM | > 100 µM | – |
| C=CCN1C(=O)/C(=C/c2ccccc2)N=C1SC/C=C/C | > 100 µM | – | – |
| CCCCn1c(C)c(C)c2c1NN=C(C#N)S2(=O)=O | > 100 µM | > 100 µM | – |
| N/C(=N\Nc1cccc(Cl)c1)c1cccnc1 | > 100 µM | > 100 µM | – |
| O=C1c2scc(-c3ccc(F)cc3)c2-n2cccc21 | – | > 100 µM | – |
| CSC1=C(C)S/C(=C\c2ccc(/C=C3\SC(C)=C(SC)S3)cc2)S1 | > 100 µM | > 100 µM | – |
| COC(=O)/N=[N+](\[O-])C(c1ccc(Cl)cc1)c1ccc(Cl)cc1 | > 100 µM | > 100 µM | – |
| [N-]=[N+]=NC1(c2ccccc2)C(=O)c2cccc3c4ccccc4n(c23)C1=O (configuration not stated) | – | > 100 µM | – |
| COC1C(=[N+]=[N-])C(=O)NC(=O)N1C1OC(COC(c2ccccc2)(c2ccccc2)c2ccccc2)C(O)C1O (configuration not stated) | 49.4 µM | 49.7 µM | TGI (M19-MEL melanoma): 39.5 µM; TGI (KM20L2 colon): 31.1 µM; TGI (SNB-78 CNS): 45.6 µM; TGI (HOP-18 NSCLC): 37.5 µM; TGI (DLD-1 colon): 37.3 µM; TGI (LXFL 529 NSCLC): 32.1 µM |
| CC12CC(=O)OC(Cc3ccccc31)O2 (configuration not stated) | > 100 µM | > 100 µM | TGI (M19-MEL melanoma): > 100 µM; TGI (KM20L2 colon): > 100 µM; TGI (DMS 114 small cell lung): > 100 µM; TGI (SNB-78 CNS): > 100 µM; TGI (DMS 273 small cell lung): > 100 µM; TGI (HOP-18 NSCLC): > 100 µM; TGI (DLD-1 colon): > 100 µM; TGI (LXFL 529 NSCLC): > 100 µM; TGI (XF 498 CNS): > 100 µM |
| N#Cc1c(Cl)cccc1Oc1ccc(S(=O)(=O)/N=C(\NO)Nc2ccc(Cl)cc2)cc1 | 53.6 µM | 44.1 µM | – |
| O=S(=O)(O)c1cc(S(=O)(=O)O)c2c(N=Nc3ccccc3)c(O)ccc2c1 | > 100 µM | > 100 µM | – |
| CCCOP1(=O)C=C(C)C(Cl)=C(C)C1 (configuration not stated) | > 100 µM | 64.9 µM | TGI (M19-MEL melanoma): 52.7 µM; TGI (KM20L2 colon): 88.8 µM; TGI (RXF-631 renal): > 100 µM; TGI (DMS 114 small cell lung): 46.3 µM; TGI (DMS 273 small cell lung): 36.7 µM; TGI (HOP-18 NSCLC): > 100 µM; TGI (DLD-1 colon): 96.3 µM; TGI (LXFL 529 NSCLC): 42.9 µM; TGI (XF 498 CNS): 31.4 µM |
